Laboratory results from US11980609B2, “LPA receptor antagonists and uses thereof” (Gilead Sciences, Inc., priority 2021, dated 2024).

Molecular target: T1, human LPAR1 (Homo sapiens, UniProt Q92633)
T1 construct: host or cells: CHO-K1
Assay: LPAR1 intracellular calcium mobilization assay (antagonist mode)
Type: cell-based
Conditions: CHO-K1 EDG2 cells expressing human LPAR1; 60 min pre-incubation with compound (0.5 nM to 10 μM), then LPA 18:2 challenge; FLIPR Tetra calcium signal
Procedure: In vitro LPAR1 activity was measured in an intracellular calcium mobilization assay.
CHO-K1 EDG2 cells (DiscoverX cat #93-0644C2) expressing human LPAR1 (NM_001401.3) were seeded in a total volume of 25 μL of Dulbecco's Modification of Eagle's Medium (DMEM) with 10% Fetal Bovine Serum, 1× PenStrepGlutamine, 300 μg/ml Hygromycin, and 800 μg/ml G418 into 384-well tissue culture plate (Grenier #781091) at 15,000 cells/well and incubated at 37° C. overnight. Prior to testing, 25 μL Calcium Loading Dye Component A (FLIPR Calcium 6 Assay Kit Molecular Device #R8190) and 2.5 mM Probenecid (Invitrogen #P36400, prepared fresh) in Hank's Balanced Salt Solution (Corning #21-023-CV), 20 mM HEPES (Corning #25-060-CI), 0.1% Bovine Serum Albumin (Sigma-Aldrich #A7906-500G) was add to the cells for 60 minutes at 37° C.
Agonist dose curves of LPA 18:2 (Avanti Polar Lipids cat #857138, 0.5 nM to 10 μM) were recorded to determine the LPA 18:2 EC80 for subsequent antagonist assays. For agonist dose curves, cells were removed from the incubator 2 hours after dye loading and transferred to the FLIPR Tetra instrument (Molecular Devices, San Jose, CA). Calcium mobilization was monitored for 5 min and 10 μL 6×LPA in HBSS/20 mM Hepes/0.1% bovine serum albumin (BSA) was added to the cells 5 seconds into the assay.
To determine the LPAR1 antagonist activity of test compounds, cells were pre-incubated with test compound at a dose range of 0.5 nM to 10 μM, followed by LPA at […] concentration (100 nM). After dye loading, cells were removed from the incubator and 0.3 μL of 200× antagonist was added. Cells were incubated for 60 minutes at 37° C. Antagonist activity was measured on a FLIPR Tetra. Calcium mobilization was monitored for 3.5 minutes and 10 μL 6×EC80 LPA in HBSS, 20 mM HEPES, and 0.1% BSA was added to the cells 5 seconds into the assay. Signal amplitude (Maximum minus minimum) values were plotted against log10 of antagonist concentration using Dose Response Tool (Gilead Sciences Inc.) to determine EC50.
To assess the antagonistic potential of exemplified compounds EC50 values were determined for Compounds 1 to 55 in the LPAR1 calcium mobilization assay. The compound numbers correspond to the compound numbers in Examples 1 to 35. N/A=not available.

T1 sequence (Q92633 whole entry): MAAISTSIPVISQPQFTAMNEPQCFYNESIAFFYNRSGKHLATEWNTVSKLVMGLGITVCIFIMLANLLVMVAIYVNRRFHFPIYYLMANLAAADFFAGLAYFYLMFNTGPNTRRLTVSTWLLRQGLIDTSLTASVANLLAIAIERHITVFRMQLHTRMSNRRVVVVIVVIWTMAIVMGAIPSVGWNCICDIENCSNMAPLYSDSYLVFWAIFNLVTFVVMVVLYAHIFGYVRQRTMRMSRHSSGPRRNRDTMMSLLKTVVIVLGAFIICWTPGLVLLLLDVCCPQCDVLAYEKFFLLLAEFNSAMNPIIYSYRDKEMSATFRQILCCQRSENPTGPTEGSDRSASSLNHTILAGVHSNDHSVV

EC50: 20.6 nM
Structure (SMILES): C[C@@H](OC(=O)Nc1c(-c2ncc(NC(=O)c3ccc(Cl)nc3)cn2)cnn1C)c1cc(F)cnc1F [Compound 26, (R)-1-(2,5-difluoropyridin-3-yl)ethyl (4-(5-(6-chloronicotinamido)pyrimidin-2-yl)-1-methyl-1H-pyrazol-5-yl)carbamate]
